We go through 37 compounds from patent publication US20250313569A1, “Pharmaceutical Compounds And Compositions As Modulators Of MAS-Related G-Protein Receptor X2” (Enanta Pharmaceuticals, Inc., priority 2024, published 2025).

The target in one assay is T1, human MRGPRX2 (Homo sapiens, UniProt Q96LB1).
T1 construct: expressed in transfected cells; host or cells: HEK293
T1 sequence (Q96LB1 1-330): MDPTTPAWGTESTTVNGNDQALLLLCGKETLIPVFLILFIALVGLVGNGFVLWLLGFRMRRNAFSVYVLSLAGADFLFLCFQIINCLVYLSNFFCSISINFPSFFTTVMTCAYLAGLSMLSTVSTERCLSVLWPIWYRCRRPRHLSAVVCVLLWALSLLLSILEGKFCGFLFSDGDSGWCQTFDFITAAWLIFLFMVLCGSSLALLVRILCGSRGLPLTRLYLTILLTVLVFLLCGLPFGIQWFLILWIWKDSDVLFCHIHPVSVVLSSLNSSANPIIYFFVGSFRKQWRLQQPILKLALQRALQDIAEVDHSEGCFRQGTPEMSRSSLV
The assay is described as follows: MRGPRX2 IP-1 Gq HTRF assay in HEK293 cells stably expressing human MRGPRX2, Cortistatin-14 at EC75. It counts as cell-based. Conditions: 2 hours at 37° C., cellular IP-1. The procedure: HEK293 cells stably expressing human MRGPRX2 were grown in Dulbecco's Modified Eagle Medium (DMEM) supplemented with 10% fetal bovine serum (FBS), 1% Glutamax, and 1 μg/mL of puromycin. Cells were maintained in a 37° C., 5% CO2 humidified incubator.
Cells were plated in a 384-well assay plate at a density of 20,000 cells per well overnight. Compounds were solubilized at 10 mM in DMSO and added as a 10-point curve using an ECHO acoustic liquid handler. On the day of the assay, Cortistatin-14 was diluted in assay buffer (provided by IP-One-Gq-HTRF kit purchased from Cisbio, 62IPAPEJ) and added to the assay plate at a final concentration corresponding to the predetermined EC75. Plates were incubated at 37° C. for 2 hours prior to addition of HTRF detection reagents per the manufacturer's instructions. The plates were read on a Perkin Elmer Envision plate reader. The HTRF ratio and cellular IP-1 levels were calculated. XLfit was used to calculate an EC50 value for each compound using a 4-parameter logistic curve fitting model. EC50 ranges are reported as follows: A<100 nM; B 0.1-1 μM; C>1 μM.

The target of the next assay is T2, MRGPRX2 LAD2 (Homo sapiens, UniProt Q96LB1).
T2 construct: host or cells: LAD2 human mast cells
T2 sequence (Q96LB1 1-330): T1 sequence (Q96LB1 1-330)
The assay is described as follows: LAD2 β-hexosaminidase release assay (degranulation), Cortistatin-14 at EC75. It counts as cell-based. The conditions noted are these: LAD2 cells; 1 hour compound incubation, Cortistatin-14 at EC75 for 30 minutes; percent degranulation (β-hexosaminidase). As to the method:
LAD2 cells obtained from the NIH were cultured in StemPro34 (Gibco) serum-free media supplemented with GlutaMax, penicillin and streptomycin, and 100 ng/mL SCF (Invitrogen). Cells were maintained in a 37° C., 5% CO2 humidified incubator at a concentration of 2-5E5 cells/mL, with hemidepletion once a week.
One day prior to the assay, cells were starved of SCF at a concentration of 2.3E5 cells/mL. On the day of the assay cells were washed twice in Tyrode's Buffer containing 0.04% BSA (assay buffer) and plated in a 96 well-v-bottom assay plate at 20,000 cells per well in 80 μL of assay buffer. Compounds were solubilized at 10 mM DMSO and added as a 10-fold overconcentrated 8-point curve in assay buffer in a volume of 10 μL using the JANUS liquid handler. Assay plates were incubated for 1 hour at 37° C. Cortistatin-14 was diluted in assay buffer to […] its predetermined EC75 and added to the assay plates in a volume of 10 μL. Assay plates were incubated at 37° C. for 30 minutes. After incubation, cells were pelleted and 50 μL of supernatant from each well was transferred to a 96 well flat bottom plate containing 100 μL of substrate solution (3.5 mg/mL p-Nitrophenyl-N-acetyl-β-D-glucosaminide (Sigma Aldrich) in 40 mM Citrate Buffer (Thermo Fisher)). The remaining cell pellets were lysed with 150 μL of 0.1% Triton-X-100 and mixed thoroughly. 50 μL of lysate was transferred to a 96-well flat bottom plate containing 100 μL of substrate solution. Plates with supernatants and lysates were incubated at 37° C. for 90 minutes prior to addition of 50 μL of 400 mM Glycine buffer (pH 10.7). The plates were read on a Perkin Elmer Envision plate reader at an Abs of 405 nanometers. Percent degranulation was calculated and Xlfit was used to calculate an EC50 value for each compound using a 4-parameter logistic curve fitting model. EC50 ranges are reported as follows: A<100 nM; B 0.1-1 μM; C>1 μM.

The structures appear in SMILES notation.

For `CS(=O)(=O)Nc1cccc(C(=O)N[C@@H]2COC[C@H](Nc3cc(C(F)(F)F)nc4ccc(Cl)cc34)C2)c1` (racemic) [Example 44, N-(cis-5-((6-chloro-2-(trifluoromethyl)quinolin-4-yl)amino)tetrahydro-2H-pyran-3-yl)-3-(methylsulfonamido)benzamide], the EC50 at human MRGPRX2 and on MRGPRX2 LAD2 was under 100 nM in each case.

Turning to `CS(=O)(=O)Nc1cccc(C(=O)N[C@H]2C[C@@H](Nc3cc(C(F)(F)F)nc4ccc(Cl)cc34)CN(C(=O)c3ccccc3)C2)c1` [Example 1], the EC50 is 100 to 1000 nM at human MRGPRX2 and under 100 nM on MRGPRX2 LAD2. For `CC(=O)N1C[C@@H](NC(=O)c2cccc(NS(C)(=O)=O)c2)C[C@@H](Nc2cc(C(F)(F)F)nc3ccc(Cl)cc23)C1` [Example 2], in that order: under 100 nM and under 100 nM. In the case of `CS(=O)(=O)Nc1cccc(C(=O)N[C@H]2C[C@@H](Nc3cc(C(F)(F)F)nc4ccc(Cl)cc34)CN(S(C)(=O)=O)C2)c1` [Example 3], the results for the EC50 at human MRGPRX2 and on MRGPRX2 LAD2 were 100 to 1000 nM and under 100 nM, respectively. Take `CS(=O)(=O)Nc1cccc(C(=O)N[C@H]2C[C@@H](Nc3cc(C(F)(F)F)nc4ccc(Cl)cc34)CN(S(=O)(=O)c3ccccc3)C2)c1` [Example 4]: the EC50 is 100 to 1000 nM on human MRGPRX2 and under 100 nM at MRGPRX2 LAD2. As for `COC(=O)N1C[C@@H](NC(=O)c2cccc(NS(C)(=O)=O)c2)C[C@@H](Nc2cc(C(F)(F)F)nc3ccc(Cl)cc23)C1` [Example 5], the EC50 on human MRGPRX2 and on MRGPRX2 LAD2 was under 100 nM each time. For the compound `CS(=O)(=O)Nc1cccc(C(=O)N[C@H]2C[C@@H](Nc3cc(C(F)(F)F)nc4ccc(Cl)cc34)CN(C(=O)C(F)(F)F)C2)c1` [Example 8], the results for the half-maximal effective concentration (EC50) on human MRGPRX2 and at MRGPRX2 LAD2 were 100 to 1000 nM and under 100 nM, respectively. With `CNC(=O)N1C[C@@H](NC(=O)c2cccc(NS(C)(=O)=O)c2)C[C@@H](Nc2cc(C(F)(F)F)nc3ccc(Cl)cc23)C1` [Example 9], the concentration for a half-maximal effect (EC50) on human MRGPRX2 and on MRGPRX2 LAD2 was 100 to 1000 nM in each case. In the case of `CN(C)C(=O)N1C[C@@H](NC(=O)c2cccc(NS(C)(=O)=O)c2)C[C@@H](Nc2cc(C(F)(F)F)nc3ccc(Cl)cc23)C1` [Example 10], the 50% effective concentration (EC50) at human MRGPRX2 was 100 to 1000 nM; on MRGPRX2 LAD2 it was under 100 nM. For `CC(=O)N1C[C@@H](NC(=O)c2cccc(C#N)c2)C[C@@H](Nc2cc(C(F)(F)F)nc3ccc(Cl)cc23)C1` [Example 24] the same measures were under 100 nM and under 100 nM.

Compound `CC(=O)N1C[C@@H](NC(=O)c2cnn(C(F)F)c2)C[C@@H](Nc2cc(C(F)(F)F)nc3ccc(Cl)cc23)C1` [Example 40] gave an EC50 on human MRGPRX2 of under 100 nM. Same read-out and setting: for `CS(=O)(=O)Nc1cccc(C(=O)N[C@@H]2CNC[C@H](Nc3ccc(C#N)c(C(F)(F)F)c3)C2)c1` [Example 45] the value was over 1000 nM; for `CC(=O)N1C[C@@H](NC(=O)c2cccc(NS(C)(=O)=O)c2)C[C@@H](Nc2ccc(C#N)c(C(F)(F)F)c2)C1` [Example 46], over 1000 nM. Still for that read-out and setting: for `CC(=O)N1C[C@H](Nc2cc(C(F)(F)F)nc3ccc(Cl)cc23)C[C@H](N(C)C(=O)c2cnn(C)c2)C1` [Example 47] the value was over 1000 nM; for `CN1C[C@@H](NC(=O)c2cccc(NS(C)(=O)=O)c2)C[C@@H](Nc2cc(C(F)(F)F)nc3ccccc23)C1` [Example 51], over 1000 nM. Consider `CN1C[C@@H](NC(=O)c2cccc(NS(C)(=O)=O)c2)C[C@@H](N(C)c2cc(C(F)(F)F)nc3ccccc23)C1` [Example 52], for which, on human MRGPRX2, the half-maximal effective concentration (EC50) is over 1000 nM. The same measure, in the same setting: for `CS(=O)(=O)Nc1cccc(NC(=O)[C@@H]2COC[C@H](Nc3cc(C(F)(F)F)nc4ccc(Cl)cc34)C2)c1` [Example 53] the value was under 100 nM; for `CS(=O)(=O)Nc1cccc(-c2cn([C@@H]3CNC[C@H](Nc4cc(C(F)(F)F)nc5ccc(Cl)cc45)C3)nn2)c1` [Example 54, N-(3-(1-((3S,5R)-5-((6-Chloro-2-(trifluoromethyl)quinolin-4-yl)amino)piperidin-3-yl)-1H-1,2,3-triazol-4-yl)phenyl) methanesulfonamide], 100 to 1000 nM. Same read-out and setting: the figure for `CC(=O)N1C[C@H](Nc2cc(C(F)(F)F)nc3ccc(Cl)cc23)C[C@H](n2cc(-c3cccc(NS(C)(=O)=O)c3)nn2)C1` [Example 55] is 100 to 1000 nM; for `COc1cc(C(=O)N[C@H]2C[C@@H](Nc3cc(C(F)(F)F)nc4ccc(Cl)cc34)CN(C(C)=O)C2)cc2cn(C(F)F)nc12` [Example 56] it is under 100 nM. The compound `CCn1cc2cc(C(=O)N[C@H]3C[C@@H](Nc4cc(C(F)(F)F)nc5ccc(Cl)cc45)CN(C(C)=O)C3)ccc2n1` [Example 57] displayed an EC50 at human MRGPRX2 of under 100 nM. Still for that read-out and setting: for `CC(=O)N1C[C@@H](NC(=O)c2ccc3[nH]ncc3c2)C[C@@H](Nc2cc(C(F)(F)F)nc3ccc(Cl)cc23)C1` [Example 58] the value was under 100 nM; for `CC(=O)N1C[C@@H](NC(=O)c2cn(C(F)F)nc2C(F)F)C[C@@H](Nc2cc(C(F)(F)F)nc3ccc(Cl)cc23)C1` [Example 59], under 100 nM. Still for that read-out and setting: for `COc1cc(C(=O)N[C@H]2C[C@@H](Nc3cc(C(F)(F)F)nc4ccc(Cl)cc34)CN(C(C)=O)C2)ccc1OC1CC1` [Example 60] the value was 100 to 1000 nM. In turn, `CC(=O)N1C[C@@H](NC(=O)c2cnn(CC3CC3)c2)C[C@@H](Nc2cc(C(F)(F)F)nc3ccc(Cl)cc23)C1` [Example 61] yielded a half-maximal effective concentration (EC50) at human MRGPRX2 of under 100 nM. Same read-out and setting: for `CC(=O)N1C[C@@H](NC(=O)c2ccc(C)nc2)C[C@@H](Nc2cc(C(F)(F)F)nc3ccc(Cl)cc23)C1` [Example 62] the value was 100 to 1000 nM; for `CC(=O)N1C[C@@H](NC(=O)c2ccc(C(F)(F)F)nc2)C[C@@H](Nc2cc(C(F)(F)F)nc3ccc(Cl)cc23)C1` [Example 63], 100 to 1000 nM.

The compound `CC(=O)N1C[C@@H](NC(=O)c2cnn(CC(C)(C)O)c2)C[C@@H](Nc2cc(C(F)(F)F)nc3ccc(Cl)cc23)C1` [Example 64] yielded a concentration giving a half-maximal response (EC50) at human MRGPRX2 of under 100 nM. Still for that read-out and setting: for `CC(=O)N1C[C@@H](NC(=O)c2cn(CC(C)(C)O)nc2Cl)C[C@@H](Nc2cc(C(F)(F)F)nc3ccc(Cl)cc23)C1` [Example 65] the value was under 100 nM; for `CC(=O)N1C[C@@H](NC(=O)c2ccc(OC(F)(F)F)cc2)C[C@@H](Nc2cc(C(F)(F)F)nc3ccc(Cl)cc23)C1` [Example 66], 100 to 1000 nM.

For the compound `CC(=O)N1C[C@@H](NC(=O)c2ccc(C(F)(F)F)cc2)C[C@@H](Nc2cc(C(F)(F)F)nc3ccc(Cl)cc23)C1` [Example 67], at human MRGPRX2, the EC50 was in the range of 100 to 1000 nM. Turning to `CC(=O)N1C[C@@H](NC(=O)c2cnn(C3CCCCC3)c2)C[C@@H](Nc2cc(C(F)(F)F)nc3ccc(Cl)cc23)C1` [Example 68], the 50% effective concentration (EC50) at human MRGPRX2 was under 100 nM.

At human MRGPRX2, `CC(=O)N1C[C@@H](NC(=O)c2cnn(-c3ccccc3)c2)C[C@@H](Nc2cc(C(F)(F)F)nc3ccc(Cl)cc23)C1` [Example 69] returned a concentration giving a half-maximal response (EC50) of 100 to 1000 nM.

For `CC(=O)N1C[C@@H](NC(=O)c2cnn(-c3ccc(F)cc3)c2)C[C@@H](Nc2cc(C(F)(F)F)nc3ccc(Cl)cc23)C1` [Example 70], the half-maximal effective concentration (EC50) on human MRGPRX2 lay in the range of 100 to 1000 nM. As for `CC(=O)N1C[C@@H](Nc2nnc(-c3ccc(F)cc3)o2)C[C@@H](Nc2cc(C(F)(F)F)nc3ccc(Cl)cc23)C1` [Example 71], the concentration for a half-maximal effect (EC50) at human MRGPRX2 was over 1000 nM. On the same count and under the same terms, for `CS(=O)(=O)Nc1cccc(C(=O)N[C@H]2C[C@@H](Nc3cc(C(F)(F)F)nc4ccc(Cl)cc34)CN(CC(F)F)C2)c1` [Example 73] the value was under 100 nM; for `O=C(N[C@H]1C[C@@H](Nc2cc(C(F)(F)F)nc3ccc(Cl)cc23)CS(=O)(=O)C1)c1ccc(F)cc1` [Example 140], over 1000 nM.
